Reference: US8415393B2, “Anti-bacterial drug targeting of genome maintenance interfaces” (Wisconsin Alumni Research Foundation, priority 2007, dated 2013)
≈ marks a conversion by molar mass, not a printed value. Where two headings read alike, the source gives them in different places. Where a SMILES comes first, the peptide text is derived from it. Where no end group is shown, it is not given here.

Columns and labels:
Enterococcus faecalis = test: Growth on agar plates containing compound, Enterococcus faecalis; assay type: cell-based; details: 100 μM compound in agar
Description: (§1) A number of the tested candidate compounds had profound inhibitory effects on bacterial growth. In addition, it was discovered that the identified drug compounds can slow the growth of a number of other Gram-positive bacterial species. For example, the growth of Bacillus subtilis and Enterococcus faecalis was inhibited when these bacteria were grown on agar plates containing 100 μM of either compound 9 or compound 10.

Deinococcus radiodurans = test: Growth on agar plates containing compound, Deinococcus radiodurans; assay type: cell-based; details: tested in a similar manner (100 μM in agar)
Description: as §1

red blood cells = test: In vitro hemolysis; assay type: cell-based; details: for % hemolysis at given concentration: 1 hour; for Hemolysis: Table 3, minimum concentration necessary to lyse red blood cells
Description: The identified small molecules were incubated with red blood cells to see what percentage of cells would lyse after 1 hour. Estimated hemolysis data are due to problem with reading absorbance, when the compound absorbs at the same wavelength as heme or if the compound precipitates. In such instances it is difficult to quantitate the absorbance readings; however, visual determination of how many cells have lysed can then be performed, which provides an estimate of cell lysis.

[1] = system: Staphylococcus aureus 12598; test: Bacterial growth assay in LB liquid media, S. aureus; assay type: cell-based; details: Staphylococcus aureus, 12598
Description: (§2) 100 μL of LB containing E. coli 1655, E. coli 4213, or S. aureus at A ˜0.05 OD 600 was aliquoted in 96 well plates. One μL of compound in DMSO was added to final concentrations given. Plates were incubated at 37° C. with shaking at 250 RPM. Rate of growth was calculated by determining the average change in OD/hour that took place between hours 3 and 7 (log growth phase). The graphs shown herein are plots of this bacterial growth rate (change in OD/h) against inhibitor concentration in μM.

B. subtilis = test: Growth on solid media (MIC; agar plates with compound), B. subtilis; assay type: cell-based, Bacillus subtilis; details: Bacillus subtilis; for growth on agar plates: 100 μM compound in agar; for MIC: solid media, B. subtilis
Description: as §1

[2] = system: HT-29 (human colorectal adenocarcinoma) cells; test: Mammalian cell toxicity, CellTiter-Glo cell viability assay; assay type: cell-based
Description: The toxicity of the identified antimicrobial candidate compounds was tested using human colorectal adenocarcinoma cells in vitro. […] The mammalian cells were tested using a CellTiter-Glo cell viability assay (Promega, Madison, Wis.).

[3] = molecular target: Exonuclease I/SSB-Ct complex (Escherichia coli, UniProt P04995); test: Fluorescence polarization competition: inhibition of fluorescein-SSB C-terminal peptide binding to Exonuclease I (HTS and Ki determination)
Description: (§3) Peptide binding assays were performed in solution, using the peptides from above, and Exonuclease I, in the absence or presence of various compounds. Different amounts of Exonuclease I (ExoI) were used in the peptide binding assays. […] Fluorescence polarization (FP) was measured at 25° C. in triplicate; the average FP value was plotted with standard deviation of the mean shown as error.
(§4) Concentrated Exonuclease I was dialyzed overnight into 2 liters dilution buffer (DB) (20 mM Tris pH 8.0 HCl, 100 mM NaCl, 1 mM MgCl2, and 1 mM Beta-Mercaptoethanol). […] After sitting at room temperature for 5 min, a liquid handling system was used to aliquot this solution into 384 well plates providing 30 microliters/well. One microliter of 1 mM compound was then added. The screened compounds were obtained from the ChemBridge DIVERSet library (ChemBridge Corporation, San Diego, Calif.), from the Maybridge HitFinder library (Thermo Fisher Scientific, Waltham, Mass.), from the ChemDiv library (Chemical Diversity Labs, San Diego, Calif.), or from the Known Bioactive Library—KBA01.
(§5) The FP (fluorescence polarization) values for each well were read using a (plate reader) 5 minutes after compound addition.
(§6) Increasing amounts of compound were titrated into peptide protein mixture until FP values were lowered to values given by only fluorescently labeled peptide alone. Ki values were determined using the Ki calculator for fluorescence-based competitive binding assays of Prof. Shaomeng Wang, University of Michigan (Nikolovska-Coleska et al., 2004, Anal. Biochem. 332: 261-273).

E. coli (imp4213) = test: MIC on solid media, E. coli; assay type: cell-based; details: Escherichia coli, read-out: MIC (E. coli)
[4] = system: E. coli 4213 (imp4213, compromised cell wall); test: microbe, parasite or virus in culture; assay type: cell-based; details: Escherichia coli
Description: The compromised cell wall allows the chemicals to pass through it more readily.
as §2

[5] = molecular target: Topoisomerase III (TopoIII)/C-terminal tail of E. coli SSB (Escherichia coli, UniProt P14294); test: Topoisomerase III peptide binding (fluorescence anisotropy); details: 100 μM final concentration, 1% DMSO
Description: TopoIII was titrated into 10 nM fluorescent peptide, as described above for the ExoI binding assays. The buffer conditions for this binding assay were: 300 mM NaCl, 20 mM Tris pH 8.0, 10% Glycerol, 1 mM BME (Beta-Mercaptoethanol), and 1% DMSO. Concentrations of TopoIII used are given on the graph in FIG. 24. Changes in anisotropy upon binding were read using PanVera Beacon 2000 FP.
Either unlabeled peptide or various compounds were then added to a final concentration of 100 μM. These compounds and unlabeled peptide were dissolved in DMSO and their addition brought the final concentration of DMSO to 1%.

RecQ = RecQ (Escherichia coli, UniProt P15043); details: read-out: Kd, app; SSB-Ct peptide binding by RecQ; cited from earlier work
ExoI nuclease activity = details: radiolabeled ssDNA substrate
PriA = PriA (Escherichia coli, UniProt P17888); details: read-out: Kd, app; SSB-Ct peptide binding by PriA; cited from earlier work
[6] = molecular target: T1, Exonuclease I/SSB-Ct complex (Escherichia coli, UniProt P04995); test: Fluorescence polarization competition: inhibition of fluorescein-SSB C-terminal peptide binding to Exonuclease I (HTS and Ki determination); details: FIG. 7, unlabeled peptide competition
T1 sequence (P04995 whole entry, looked up): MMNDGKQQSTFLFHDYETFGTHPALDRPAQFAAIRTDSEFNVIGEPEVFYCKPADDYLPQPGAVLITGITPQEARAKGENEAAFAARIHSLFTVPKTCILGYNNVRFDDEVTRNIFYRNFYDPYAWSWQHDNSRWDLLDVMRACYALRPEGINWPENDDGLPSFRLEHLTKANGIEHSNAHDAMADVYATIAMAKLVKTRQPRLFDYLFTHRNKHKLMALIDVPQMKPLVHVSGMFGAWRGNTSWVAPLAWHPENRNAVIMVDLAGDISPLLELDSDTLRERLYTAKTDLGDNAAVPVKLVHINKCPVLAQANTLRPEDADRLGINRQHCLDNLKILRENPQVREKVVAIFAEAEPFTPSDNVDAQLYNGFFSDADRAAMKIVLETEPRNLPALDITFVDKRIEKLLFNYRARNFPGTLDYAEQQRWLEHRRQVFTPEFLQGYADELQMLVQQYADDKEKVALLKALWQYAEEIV
Description: as §3, §4, §5, §6

[7] = molecular target: ExoI Arg316 Ala variant (Escherichia coli) (UniProt P04995); test: cell-based or functional assay
[8] = molecular target: Escherichia coli Exonuclease I (Escherichia coli) (UniProt P04995); test: cell-based or functional assay
ExoI = molecular target: T2, ExoI (Escherichia coli, UniProt P04995); assay type: binding; details: FIG. 26A
T2 construct: made in house

E. coli Exonuclease I = molecular target: T3, E. coli Exonuclease I (Escherichia coli, UniProt P04995 1-475); test: fluorescence polarization competition: unlabeled peptide titrated into 1 uM ExoI with 10 nM fluorescein-labeled SSB C-terminal peptide
T3 construct: also called ExoI; Exol
T3 sequence: T1 sequence (P04995 whole entry, looked up)

[9] = Table 3, reduce growth 50% in liquid media, unit not given (Table 5 gives μM), read-out: IC(50) S. aureus
[10] = Table 5, read-out: IC50 μM inhibitor, inhibition of S. aureus growth
[11] = compound listing, bacterial growth in LB, read-out: IC50 Staphylococcus aureus
[12] = HT-29, Table 3, unit inferred, read-out: IC(50) Human cell line
[13] = HT-29 cells, CellTiter-Glo, read-out: IC50
[14] = read-out: IC50 μM inhibitor, inhibition of E. coli growth
[15] = read-out: IC(50) E. coli imp4213

Topoisomerase III (TopoIII)/C-terminal tail of E. coli SSB, sequence (P14294 whole entry): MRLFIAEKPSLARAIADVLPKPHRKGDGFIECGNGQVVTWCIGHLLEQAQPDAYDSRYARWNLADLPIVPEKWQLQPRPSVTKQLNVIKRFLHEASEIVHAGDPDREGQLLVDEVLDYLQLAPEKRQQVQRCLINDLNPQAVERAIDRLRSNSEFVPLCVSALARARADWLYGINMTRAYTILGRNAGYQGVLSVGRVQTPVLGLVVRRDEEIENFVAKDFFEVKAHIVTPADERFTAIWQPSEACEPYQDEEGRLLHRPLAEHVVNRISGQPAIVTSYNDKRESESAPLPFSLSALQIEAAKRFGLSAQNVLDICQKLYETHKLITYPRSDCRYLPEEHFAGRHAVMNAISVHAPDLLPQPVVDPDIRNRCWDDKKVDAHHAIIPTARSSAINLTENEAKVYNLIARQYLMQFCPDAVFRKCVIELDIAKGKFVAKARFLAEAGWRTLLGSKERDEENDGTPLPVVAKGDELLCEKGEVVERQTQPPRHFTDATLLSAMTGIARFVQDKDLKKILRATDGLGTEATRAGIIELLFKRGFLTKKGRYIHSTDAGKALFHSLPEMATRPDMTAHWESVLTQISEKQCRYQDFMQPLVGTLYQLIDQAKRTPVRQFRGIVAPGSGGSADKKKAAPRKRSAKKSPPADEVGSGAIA
PriA, sequence (P17888 whole entry): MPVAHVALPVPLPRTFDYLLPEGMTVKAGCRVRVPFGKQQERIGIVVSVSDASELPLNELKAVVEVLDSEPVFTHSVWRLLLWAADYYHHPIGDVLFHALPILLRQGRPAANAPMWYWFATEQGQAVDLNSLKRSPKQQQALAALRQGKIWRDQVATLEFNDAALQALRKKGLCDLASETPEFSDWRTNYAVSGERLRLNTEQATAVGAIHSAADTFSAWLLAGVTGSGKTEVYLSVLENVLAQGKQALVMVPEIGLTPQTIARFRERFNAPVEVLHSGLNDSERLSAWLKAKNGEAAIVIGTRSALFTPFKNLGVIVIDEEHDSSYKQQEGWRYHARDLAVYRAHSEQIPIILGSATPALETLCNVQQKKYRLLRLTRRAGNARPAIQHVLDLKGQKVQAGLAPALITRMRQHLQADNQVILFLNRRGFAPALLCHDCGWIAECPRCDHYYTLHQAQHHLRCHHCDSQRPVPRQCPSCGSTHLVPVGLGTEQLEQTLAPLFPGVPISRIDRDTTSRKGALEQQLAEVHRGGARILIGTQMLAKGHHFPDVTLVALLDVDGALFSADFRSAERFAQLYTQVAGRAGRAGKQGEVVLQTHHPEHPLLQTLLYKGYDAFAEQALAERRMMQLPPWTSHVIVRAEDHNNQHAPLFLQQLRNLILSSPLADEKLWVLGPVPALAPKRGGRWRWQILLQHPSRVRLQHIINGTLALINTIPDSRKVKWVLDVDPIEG
RecQ, sequence (P15043 whole entry): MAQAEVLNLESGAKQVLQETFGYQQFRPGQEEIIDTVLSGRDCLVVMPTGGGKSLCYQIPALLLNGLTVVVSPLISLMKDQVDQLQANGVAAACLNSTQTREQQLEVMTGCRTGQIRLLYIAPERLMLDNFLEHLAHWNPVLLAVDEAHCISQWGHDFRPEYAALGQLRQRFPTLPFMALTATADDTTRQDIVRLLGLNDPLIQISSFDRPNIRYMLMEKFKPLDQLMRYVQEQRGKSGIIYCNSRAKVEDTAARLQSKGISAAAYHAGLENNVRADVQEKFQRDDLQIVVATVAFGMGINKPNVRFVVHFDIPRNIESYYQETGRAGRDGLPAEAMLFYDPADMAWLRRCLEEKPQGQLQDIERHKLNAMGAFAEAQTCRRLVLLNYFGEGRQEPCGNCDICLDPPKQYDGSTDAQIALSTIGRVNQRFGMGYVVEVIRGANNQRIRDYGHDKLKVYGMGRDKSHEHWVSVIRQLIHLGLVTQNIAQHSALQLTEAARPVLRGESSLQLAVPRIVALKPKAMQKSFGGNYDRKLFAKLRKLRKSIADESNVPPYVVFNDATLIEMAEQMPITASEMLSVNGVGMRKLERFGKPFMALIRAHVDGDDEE

With `CC(C)(C)C1=NN(c2nc3ccc(Cl)cc3s2)C(=O)C1` [Compound 9, 3-(tert-butyl)-1-(6-chloro-1,3-benzothiazol-2-yl)-4,5-dihydro-1H-pyrazol-5-one] the “growth on agar plates” value (Enterococcus faecalis) was “inhibited”, the “growth on agar plates” value (Deinococcus radiodurans) was “inhibited” and the “% hemolysis at given concentration” value (red blood cells; >800 μM) was 0% >800. For the same molecule, the Hemolysis (red blood cells) was over 800 µM, the IC50 [1, 9] was 6 µM and the IC50 [1, 10] was 6 µM. For the same molecule, the IC50 [1, 11] was 5.5 µM, the “growth on agar plates” value (B. subtilis) was “inhibited” and the MIC (B. subtilis) was 6.2 µg/mL (≈ 20.1 µM). For the same molecule, the IC50 [2, 12] was over 100 µM, the IC50 [2, 13] was 38 µM and the Ki [3] was 0.8 µM. For the same molecule, the Ki ([3]; Ki estimates, Table 2) was 2.2 µM, the Ki ([3]; Ki, compound listing) was about 0.773 µM and the MIC (E. coli (imp4213)) was 9 µg/mL (≈ 29.2 µM). The IC50 [4, 14] was 6 µM, the IC50 ([4]; read-out: IC50 E. coli 4213) was 6 µM and the IC50 [4, 15] was 6 µM.

With `COc1ccc(Nc2cc(C(F)(F)F)ccc2Cl)c(C(=O)O)c1` [Compound 10, 2-[2-chloro-5-(trifluoromethyl)anilino]-5-methoxybenzoic acid] the “growth on agar plates” value (Enterococcus faecalis) was “inhibited”, the “growth on agar plates” value (Deinococcus radiodurans) was “inhibited” and the “% hemolysis at given concentration” value (red blood cells; 400 μM) was 0% 400. For the same molecule, the “% hemolysis at given concentration” value (red blood cells; 800 μM) was 85% at 800 μM, the Hemolysis (red blood cells) was about 800 µM and the IC50 [1, 9] was 20 µM. The IC50 [1, 10] was 20 µM, the IC50 [1, 11] was 18 µM and the “growth on agar plates” value (B. subtilis) was “inhibited”. It also gave an MIC (B. subtilis) of 11.1 µg/mL (≈ 32.1 µM), an IC50 [2, 12] of over 100 µM and an IC50 [2, 13] of 60 µM. The “inhibition of fluorescent peptide binding to TopoIII (anisotropy)” value [5] was “inhibit binding”, the Ki [3] was 0.1 µM and the Ki ([3]; Ki estimates, Table 2) was 0.35 µM. It also gave a Ki ([3]; Ki, compound listing) of about 0.125 µM, an MIC (E. coli (imp4213)) of 12.3 µg/mL (≈ 35.6 µM) and an IC50 [4, 14] of 30 µM. The IC50 ([4]; read-out: IC50 E. coli 4213) was 30 µM and the IC50 [4, 15] was 30 µM.

For `CC[C@H](C)[C@H](NC(=O)[C@H](CC(=O)O)NC(=O)[C@H](CC(=O)O)NC(=O)[C@H](CC(=O)O)NC(=O)[C@H](Cc1ccccc1)NC(=O)[C@H](CC(=O)O)NC(=O)[C@H](CCSC)NC(=O)[C@@H](N)Cc1c[nH]c2ccccc12)C(=O)N1CCC[C@H]1C(=O)N[C@@H](Cc1ccccc1)C(=O)O` [WT peptide] (H-WMDFDDDIPF-OH; N-terminus assumed), the Kd (RecQ) is listed as 6 µM, the “inhibition of fluorescent peptide binding to TopoIII (anisotropy)” value [5] is listed as “did not bring the anisotropy values down to the baseline” and the “SSB stimulation of ExoI nuclease activity” value (ExoI nuclease activity) is listed as “no apparent effect”. The Kd (PriA) was 2 µM.

In the case of “DDDIPF: unlabeled SSB C-terminal peptide with three residues (MDF) missing from the N-terminus [reference compound]”, the “amount needed to titrate away the fluorescent peptide, relative to full-length peptide” value [6] is reported as “ten-fold more”.

“E. coli single-stranded DNA-binding protein (from UniProt P0AGE0 2-178)” gave an SSB-stimulated ExoI nuclease activity [7] of under 2 fold and an ExoI nuclease activity on radiolabeled ssDNA, stimulation by SSB [8] of 4 fold.

In the case of WDFMDDPFID [F-mixed], the “ExoI binding to control peptides relative to F-SSB-Ct” value (ExoI) is reported as “minimal”.

B1: WT peptide (WMDFDDDIPF, without a fluorescent moiety) (peptide)
peptide: WMDFDDDIPF
notes: also called unlabeled peptide; SSB-Ct peptide
For B1, the Ki (E. coli Exonuclease I) was 0.053 µM.
